Measured values as given in patent publication US20250136610A1, “CRYSTALLINE FORMS OF TRILACICLIB AND TRILACICLIB SALTS” (TEVA PHARMACEUTICALS INTERNATIONAL GMBH, priority 2022, published 2025).
Structures can show the parent of a compound that is named as a salt.

Experiments:
Format in all cases: physicochemical
[1] = Thermal stability (heating up to 100° C., XRPD); settings: heating 100° C., 30 minutes
Description: (§1) X-ray diffraction was performed on X-Ray powder diffractometer: Bruker D8 Advance; CuKα radiation (λ=1.5418 Å); Lynx eye detector; laboratory temperature 22-25° C.; PMMA specimen holder ring with silicon low background. Prior to analysis, the samples were gently ground by means of mortar and pestle in order to obtain a fine powder. The ground sample was adjusted into a cavity of the sample holder and the surface of the sample was smoothed by means of a cover glass.
(§2) • Scan range: 2-40 degrees 2-theta; • Scan mode: continuous; • Step size: 0.05 degrees; • Time per step: 0.5 s; • Sample spin: 30 rpm; • Sample holder: PMMA specimen holder ring with silicon low background. • All X-Ray Powder Diffraction peak values are calibrated with regard to standard silicon spiking in the sample. ssNMR Method:
A sample of Trilaciclib citrate Form TCT3 was subjected to heating up to 100° C. for 30 minutes.

[2] = Storage stability at different relative humidities and temperatures, months (XRPD)
Description: as §1, §2
Samples of Trilaciclib citrate Form TCT3 were subjected to conditions of different relative humidities at different temperatures. XRPD analysis was performed on the samples after 2 months.
Form TCT3 of Trilaciclib citrate was also found to be stable for at least 2 months at 2-8° C. Moreover, Form TCT3 is stable for at least 3 months at room temperature and humidity.

[3] = Grinding experiments (strong grinding and solvent drop grinding, XRPD); settings: 2 minutes
Description: as §1, §2
Samples of Trilaciclib citrate Form TCT3 were subjected to strong grinding, and to solvent drop grinding in isopropanol, ethanol and water. Grinding was carried out on the samples alone, or in the presence of ethanol or water. In these experiments, about 20 mg of the sample is placed in a mortar and ground with a pestle for 2 minutes. The solvent, when used, as added to the crystalline material before grinding, in a volume of 10 microliters.

[4] = Stability under all tested stress conditions (summary statement); settings: strong grinding, pressure of 2 tons, up to 100% RH for 7 days, up to 100° C.

Result (XRPD analysis) [1]: No polymorphic conversion
time for which the form is stable ([2]; at 2-8° C.): at least 2 months
time for which the form is stable ([2]; at room temperature and humidity): at least 3 months
XRPD analysis results ([3]; solvent-drop grinding (ethanol), 10 microliters): No polymorphic conversion
XRPD analysis results ([3]; solvent-drop grinding (isopropanol), 10 microliters): No polymorphic conversion
XRPD analysis results ([3]; solvent-drop grinding (water), 10 microliters): No polymorphic conversion
XRPD analysis results ([3]; strong grinding, no solvent): No polymorphic conversion
Compound: CN1CCN(c2ccc(Nc3ncc4cc5n(c4n3)C3(CCCCC3)CNC5=O)nc2)CC1 [Trilaciclib citrate Form TCT3, Trilaciclib citrate salt]
stability under stress conditions [4]: stable under all tested stress conditions
